# Test results as given in ChEMBL document CHEMBL1201862, “PubChem BioAssay data set” (2004).
#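 Method: 48-hour compound exposure of cells in 96-well plates, five concentrations, linear interpolation of endpoints. GI50: concentration for 50% inhibition of growth.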 Active and inactive are the calls of the source. Cut-off read from the data, not from the text of the source: active = GI50 up to about 1.1 µM and inactive = higher.
# Assays:
# Assay in all cases: NCI tumour cell line growth inhibition, 48 h
# NCI/ADR-RES = tested on: NCI/ADR-RES
# IGROV-1 = tested on: IGROV-1
# SNB-75 = tested on: SNB-75
# UO-31 = tested on: UO-31
# HOP-62 = tested on: HOP-62
# SF-268 = tested on: SF-268
# RXF 393 = tested on: RXF 393
# EKVX = tested on: EKVX
# SK-MEL-2 = tested on: SK-MEL-2
# OVCAR-5 = tested on: OVCAR-5
# SF-295 = tested on: SF-295
# MDA-MB-435 = tested on: MDA-MB-435
# HCT-15 = tested on: HCT-15
# RPMI-8226 = tested on: RPMI-8226
# SW-620 = tested on: SW-620
# HCC 2998 = tested on: HCC 2998
# K562 = tested on: K562
# HCT-116 = tested on: HCT-116
# M14 = tested on: M14
# ACHN = tested on: ACHN
Compound,GI50 (NCI/ADR-RES),GI50 (IGROV-1),GI50 (SNB-75),GI50 (UO-31),GI50 (HOP-62),GI50 (SF-268),GI50 (RXF 393),GI50 (EKVX),GI50 (SK-MEL-2),GI50 (OVCAR-5),GI50 (SF-295),GI50 (MDA-MB-435),GI50 (HCT-15),GI50 (RPMI-8226),GI50 (SW-620),GI50 (HCC 2998),GI50 (K562),GI50 (HCT-116),GI50 (M14),GI50 (ACHN)
CC(C)(C)c1nc2c(o1)/C(=N\c1ccc(F)cc1)c1ccccc1C2=O,6.73 µM (inactive),14.9 µM (inactive),6.79 µM (inactive),4.59 µM (inactive),15.9 µM (inactive),10.6 µM (inactive),9.79 µM (inactive),23.7 µM (inactive),2.67 µM (inactive),14.6 µM (inactive),6.1 µM (inactive),2.05 µM (inactive),5.19 µM,26.9 µM (inactive),4.27 µM (inactive),9.12 µM (inactive),4.1 µM (inactive),5.12 µM (inactive),2.96 µM (inactive),4.85 µM (inactive)
O=[N+]([O-])C(=C/c1cccc2ccccc12)/C(=C\c1cccc2ccccc12)[N+](=O)[O-],2.51 µM (inactive),1.79 µM (inactive),6.95 µM (inactive),1.85 µM (inactive),2.74 µM (inactive),2.32 µM (inactive),1.99 µM (inactive),3.4 µM (inactive),9.73 µM (inactive),3.66 µM (inactive),2.58 µM (inactive),2.28 µM (inactive),1.9 µM,2.56 µM (inactive),1.89 µM (inactive),2.42 µM (inactive),3.08 µM (inactive),2.49 µM (inactive),2.19 µM (inactive),2.13 µM (inactive)
[O-]/[N+](=N/c1ncc(-c2ccccc2)cn1)c1ncc(-c2ccccc2)cn1,62.1 µM (inactive),29.9 µM (inactive),> 100 µM (inactive),> 66.1 µM (inactive),> 100 µM (inactive),> 84.7 µM (inactive),60.5 µM (inactive),63.5 µM (inactive),> 100 µM (inactive),> 100 µM (inactive),73.5 µM (inactive),40.5 µM (inactive),36.4 µM,> 64.6 µM (inactive),> 95.7 µM (inactive),> 100 µM (inactive),52.8 µM (inactive),31.6 µM (inactive),> 100 µM (inactive),> 100 µM (inactive)
Nc1ncnc2c1ncn2C1C=C(CO)C(O)C1O (stereo not given),5.61 µM (inactive),7.74 µM (inactive),7.55 µM (inactive),0.41 µM (active),3.26 µM (inactive),10.1 µM (inactive),9.59 µM (inactive),25.8 µM (inactive),29.7 µM (inactive),7.5 µM (inactive),24.5 µM (inactive),3.08 µM (inactive),0.468 µM,0.256 µM (active),2.06 µM (inactive),4.72 µM (inactive),0.0452 µM (active),0.0509 µM (active),9.57 µM (inactive),4.48 µM (inactive)
CC1C=CN(N(C)C)C2=C1C(=O)c1cnccc1C2=O (stereo not given),0.927 µM (active),0.244 µM (active),0.315 µM (active),0.167 µM (active),0.349 µM (active),0.975 µM (active),0.408 µM (active),0.59 µM (active),1.63 µM (inactive),1.37 µM (inactive),0.676 µM (active),0.186 µM (active),0.231 µM,0.531 µM (active),0.395 µM (active),0.589 µM (active),0.205 µM (active),0.306 µM (active),0.424 µM (active),0.251 µM (active)
CN(C)/N=C1\CC(c2ccccc2)C(C#N)(C#N)C1(C#N)C#N (stereo not given),26.8 µM (inactive),21.4 µM (inactive),15.7 µM (inactive),18.6 µM (inactive),24.4 µM (inactive),20.1 µM (inactive),26.5 µM (inactive),41.6 µM (inactive),21 µM (inactive),25.6 µM (inactive),23.7 µM (inactive),27.6 µM (inactive),15.4 µM,11.8 µM (inactive),6.61 µM (inactive),18.7 µM (inactive),3.2 µM (inactive),17.8 µM (inactive),17.4 µM (inactive),18.9 µM (inactive)
O=C1c2cc3c(cc2CC12Cc1ccc4c(c1C2=O)CCC4)CCC3 (stereo not given),> 100 µM (inactive),> 100 µM (inactive),> 100 µM (inactive),> 100 µM (inactive),74 µM (inactive),> 100 µM (inactive),> 100 µM (inactive),> 100 µM (inactive),> 100 µM (inactive),> 100 µM (inactive),> 100 µM (inactive),> 100 µM (inactive),> 100 µM,> 100 µM (inactive),> 100 µM (inactive),> 100 µM (inactive),> 100 µM (inactive),> 100 µM (inactive),> 100 µM (inactive),> 100 µM (inactive)
COc1ccc(C(=O)N=C2N(c3ccccc3)C(=N/c3ccccc3)/C(=N\c3ccccc3)N2c2ccccc2)cc1,> 100 µM (inactive),54 µM (inactive),7.82 µM (inactive),> 100 µM (inactive),8.63 µM (inactive),65.8 µM (inactive),2.26 µM (inactive),48.8 µM (inactive),21.3 µM (inactive),> 75.7 µM (inactive),33.3 µM (inactive),88.3 µM (inactive),> 100 µM,> 74.6 µM (inactive),99.8 µM (inactive),> 85.7 µM (inactive),> 100 µM (inactive),36.1 µM (inactive),8.22 µM (inactive),22.5 µM (inactive)
Cc1ccccc1CN1CC2=C(CCN(Cc3ccccc3)C2=O)N2CCN=C12,4.09 µM (inactive),> 100 µM (inactive),6.08 µM (inactive),6.81 µM (inactive),9.16 µM (inactive),6.87 µM (inactive),54 µM (inactive),6.32 µM (inactive),4.81 µM (inactive),8.41 µM (inactive),3.21 µM (inactive),4.74 µM (inactive),5.04 µM,1.55 µM (inactive),4.5 µM (inactive),4.06 µM (inactive),2.96 µM (inactive),4.06 µM (inactive),6.4 µM (inactive),6.61 µM (inactive)
Cc1nc2cc(/N=N/c3c(C)noc3C)ccc2[nH]1,28.1 µM (inactive),12.6 µM (inactive),5.28 µM (inactive),13.9 µM (inactive),27.1 µM (inactive),26.6 µM (inactive),16.3 µM (inactive),18.2 µM (inactive),34.8 µM (inactive),28 µM (inactive),23.4 µM (inactive),21.3 µM (inactive),27.2 µM,17.9 µM (inactive),24.8 µM (inactive),54.3 µM (inactive),35.6 µM (inactive),18.3 µM (inactive),26.5 µM (inactive),25.1 µM (inactive)
O=C(OCCN=C1c2ccccc2CCc2ccccc21)c1ccccc1,> 100 µM (inactive),> 100 µM (inactive),> 100 µM (inactive),> 100 µM (inactive),> 100 µM (inactive),> 100 µM (inactive),> 100 µM (inactive),> 100 µM (inactive),> 100 µM (inactive),> 100 µM (inactive),> 100 µM (inactive),> 100 µM (inactive),> 100 µM,13 µM (inactive),> 100 µM (inactive),> 100 µM (inactive),> 100 µM (inactive),> 100 µM (inactive),> 100 µM (inactive),> 100 µM (inactive)
CC1(C)OC2OC(C(=O)c3ccccc3)C3OC(C)(C)OC3C2O1 (stereo not given),> 100 µM (inactive),> 100 µM (inactive),> 100 µM (inactive),> 100 µM (inactive),> 100 µM (inactive),> 100 µM (inactive),> 100 µM (inactive),> 100 µM (inactive),> 100 µM (inactive),> 100 µM (inactive),> 100 µM (inactive),> 100 µM (inactive),> 100 µM,> 100 µM (inactive),> 100 µM (inactive),> 100 µM (inactive),> 100 µM (inactive),> 100 µM (inactive),> 100 µM (inactive),> 100 µM (inactive)
Nc1ccc(-c2nc3ccccc3s2)cc1,22.6 µM (inactive),18.5 µM (inactive),23.8 µM (inactive),12.6 µM (inactive),36.9 µM (inactive),10.3 µM (inactive),17.8 µM (inactive),33.2 µM (inactive),25.3 µM (inactive),18.7 µM (inactive),29.9 µM (inactive),17.9 µM (inactive),19.5 µM,28.6 µM (inactive),20 µM (inactive),59.7 µM (inactive),21.9 µM (inactive),18 µM (inactive),18.6 µM (inactive),15.7 µM (inactive)
CCc1nc(N)c2nc(-c3ccc(C#N)cc3)oc2n1,> 100 µM (inactive),> 100 µM (inactive),> 100 µM (inactive),> 100 µM (inactive),> 100 µM (inactive),> 100 µM (inactive),> 100 µM (inactive),> 100 µM (inactive),> 100 µM (inactive),> 100 µM (inactive),> 100 µM (inactive),> 100 µM (inactive),> 100 µM,> 100 µM (inactive),> 100 µM (inactive),> 100 µM (inactive),> 100 µM (inactive),> 100 µM (inactive),> 100 µM (inactive),> 100 µM (inactive)
